Legend:
[1] = tested on: COS 5-7 cells; assay: Uptake after one minute of chemically induced low pH (HCl added to HBSS suspension), FACS; format: cell-based, African green monkey; details: for Folds Uptake mean: 1 min, 10 μM Dextran-FITC
Description: The following tables show a connection between pH and current. […] The values in the tables are shown as folds relative to the uptake in cells unexposed to any of the treatments. […] The results are expected to be substantially independent of cell type and molecule used, except for a cell-specific change and a molecule specific change.
Cells (COS 5-7) were harvested, re-suspended in DMEM (1 mg/ml glucose, 5% FCS), and incubated (37°, 5% CO2) as designated by the experiment. For uploading the cells with either H2DCF-DA (20 μM) or Bis-DHA (1 mM) incubation lasted 90 minutes. When no pre-treatments were required, the cells were kept in the DMEM for 30 minutes. Following incubation, the cells were centrifuged at 400g for 1 min, the solution aspirated, and cells re-suspended in HBSS exposure media.
Exposure of cells to pulse acidification was through the addition of HCl to the HBSS suspension for 60 seconds, terminated by the addition of a three fold larger volume of DMEM-H.
Cell suspensions were centrifuged (400g for one minute), their solutions aspirated and they were re-suspended with 0.5 ml DMEM-H supplemented with 10u/ml dextranase (Sigma-Aldrich) for 10 minutes at RT. Cells were centrifuged again; their solution aspirated and they were re-suspended with 0.2 ml DMEM-H. PI (25 μg/ml) as a label for permeabilized cells and tryphan blue (0.01% w/v) as a fluorescence quenching agent for extracellular FITC (36) were added to each sample shortly before analysis
Flow cytometry analysis was carried out by FACSort (Becton @ Dickson, San Jose, Calif.), employing a 488-nm argon laser excitation. The green fluorescence of FITC was measured via 530/30 nm filter, the red fluorescence of PI was detected via a 585/42 nm filter. […] Ten thousand cells were examined for each sample and data were collected in the list mode. The analysis of flow cytometry data was performed using WINMDI 2.9 software (Joe Trotter, The Scripps Research Institute). For each sample the geometrical mean was calculated without including PI stained cells. Cell intensity was determined as fold of induction relative to cells' constitutive uptake.
After one minute incubation, cell suspensions were immediately diluted with 3 fold larger volume of cold buffered DMEM to restore pH to a normal pH of 7.5.

[2] = tested on: COS 5-7 cells; assay: Uptake after one minute of electric pulse train (EPT) in three-compartment device, FACS; format: cell-based, African green monkey; details: for Folds Uptake mean: electric field 200 mA/cm^2; for Folds Uptake mean / Folds Uptake Fold: 1 min, 10 μM Dextran-FITC; for Folds Uptake Fold: relative to unexposed cells
Description: Exposure of cells to low-intensity trains of unipolar rectangular voltage pulses was carried in a three-compartment exposure set-up where the anode and cathode were connected to an electric pulse generator (Grass S44 Stimulator). The exposure set-up consisted of a rectangular chamber made from polystyrene, 15 mm long, 10 mm wide, with 0.5 cm^2 area platinum electrodes positioned on the extreme sides (see FIG. 15). The chamber is divided by two porous membranes (PolyEtherSulfon, 0.8 μm pores, 200 μm depth), into three distinct and equal compartments: anode, cathode and center ones. The electric field parameters applied were monitored on line by recording the voltage and the current (by means of a wide band current probe, Pearson) on an oscilloscope. Typically, a cell suspension (1*10^6 cells/ml) is exposed to a train of electric pulses consisting of unipolar rectangular pulses with duration of 180 μs, frequency of 500 Hz for the total time of exposure of one minute.
Flow cytometry analysis was carried out by FACSort (Becton @ Dickson, San Jose, Calif.), employing a 488-nm argon laser excitation. […] Ten thousand cells were examined for each sample and data were collected in the list mode. The analysis of flow cytometry data was performed using WINMDI 2.9 software (Joe Trotter, The Scripps Research Institute). For each sample the geometrical mean was calculated without including PI stained cells. Cell intensity was determined as fold of induction relative to cells' constitutive uptake.

[3] = tested on: HaCaT cells; assay: Proton induced uptake (PIU) in HaCaT cells, FACS; format: cell-based, human; details: pH 5.25; pulse label for last 5 minutes
Description: FIG. 6 is a chart showing PIU of molecules different by size and charge, in accordance with some embodiments of the invention. Hacat cultures were exposed to solutions of pH 5.2 or pH 7.4 for 5 minutes period, in the presence of different fluorescence molecules (All at 25 μM concentration). FACS analysis results (FL1, geometrical mean±SD) for the cell cultures exposed to pH 5.2 are presented as fold induction relative to results obtained for cells exposed to pH 7.4. This can be used, in some embodiments of the invention, to assess effect of molecule size and charge on uptake.
FIGS. 7A-7B are charts showing the comparison of PIU in adherent and suspended HaCaT cells, in accordance with some embodiments of the invention. For FIG. 7A, HaCaT cells were tested either at their adherent state, or following harvest at a suspended state. […] FACS analyses (FL1) in terms of geometrical mean±SD are presented as fold induction relative to the constitutive uptake at physiological pH 7.4. n=9 in 3 independent experiments. For FIG. 7B, HaCaT Cells were cultivated at low, medium or high cell density. […] The cultures were harvested and undergone FACS analyses (FL1) in terms of geometrical mean±SD and are presented as fold induction relative to the constitutive uptake of low density cultures. Statistical significance was tested against the confluent culture, n=9 in 3 independent experiments. In the charts, * indicates a t-test p<0.05; and ** indicates a t-test p<0.01. This can be used, in some embodiments of the invention, to assess effect of cell membrane rigidity and/or tissue structure on uptake.
FIGS. 12A-12B are a chart and images which show the relative change of PIU by modifiers of actin cytoskeleton organization, in accordance with some embodiments of the invention. […].

[4] = tested on: Caco2/TC7 cells; assay: Proton induced uptake (PIU) in Caco2/TC7 cells, FACS; format: cell-based; details: pH 5; 5 minutes; P<0.001
Description: Caco-2 cells were cultivated, and were harvested when reaching 80% confluence by the use of trypsin-EDTA. The cell suspensions were immediately diluted in full medium (DMEM with 4.5 mg/ml glucose, 10% FCS), centrifuged and re-suspended in recovery medium (HBSS or PBS).
Once exposure is terminated the suspension is transferred to a small vial where it is either incubated at 37° C. or immediately cooled down to 4° C. All samples are collected together on ice and then simultaneously analyzed.
Acidification is imposed by supplementing the suspension with 10 mM MES buffer and the concentrations of HCl required for reaching the experimental pH level.
The cells are washed by being centrifuged, re-suspended with fresh DMEM (without phenol-red or FCS), incubated at room temperature with probe specific digestive enzymes, where appropriate, centrifuged and washed again.
For FACS analysis, Trypan-blue (0.01%) and PI (2 μg/ml) are added to the cells suspension to quench residual extracellular fluorescence and stain necrotic cells, respectively.

[5] = tested on: COS 5-7 cells; assay: Proton induced uptake (PIU) in adherent COS 5-7 cultures, 5 minutes, FACS; format: cell-based, African green monkey; details: pH 5, P<0.001
Description: Uptake, based on flow cytometry, is plotted as function of the external pH from 3 independent experiments per cell line.
FIG. 1A is shown the Extent of uptake in terms of FITC intensity geometrical mean±SD is presented as fold induction relative to the constitutive uptake at physiological pH 7.4. In FIG. 1B is shown the PI (a necrotic cell marker) stained cells fraction±SD (%) relative to unexposed control population. In FIG. 1C is shown the FITC geometrical mean±SD presented as fold induction relative to the constitutive uptake at physiological pH 7.4.

## Dextran-FITC
[1]; pH 1.6, relative to unexposed cells
  Folds Uptake mean: 48.09 folds
[1]; pH 1.9, relative to unexposed cells
  Folds Uptake mean: 42.47 folds
[1]; pH 2.5, relative to unexposed cells
  Folds Uptake mean: 47.62 folds
[1]; pH 2.9, relative to unexposed cells
  Folds Uptake mean: 45.54 folds
[1]; pH 3.1, relative to unexposed cells
  Folds Uptake mean: 41.25 folds
[1]; pH 3.3, relative to unexposed cells
  Folds Uptake mean: 20.14 folds
[1]; pH 3.5, relative to unexposed cells
  Folds Uptake mean: 9.575 folds
[1]; pH 3.7, relative to unexposed cells
  Folds Uptake mean: 7.679 folds
[1]; pH 4, relative to unexposed cells
  Folds Uptake mean: 4.776 folds
[1]; pH 4.7, relative to unexposed cells
  Folds Uptake mean: 3.856 folds
[1]; pH 5, relative to unexposed cells
  Folds Uptake mean: 2.594 folds
[1]; pH 5.8, relative to unexposed cells
  Folds Uptake mean: 2.636 folds
[1]; pH 6, relative to unexposed cells
  Folds Uptake mean: 1.483 folds
[1]; pH 6.25, relative to unexposed cells
  Folds Uptake mean: 1.619 folds
[1]; pH 7.4 (reference)
  Folds Uptake mean: 1 folds
[1]; steep elevation of uptake starting at pH 4
  pH at which uptake reaches saturation: 3 pH
[2]; 60 mM HEPES in HBSS
  Folds Uptake mean: 51.98 folds
[2]; 70 mM HEPES in HBSS
  Folds Uptake mean: 48.84 folds
[2]; 80 mM HEPES in HBSS
  Folds Uptake mean: 14.86 folds
[2]; 90 mM HEPES in HBSS
  Folds Uptake mean: 12.81 folds
[2]; 100 mM HEPES in HBSS
  Folds Uptake mean: 10.06 folds
[2]; 120 mM HEPES in HBSS
  Folds Uptake mean: 4.613 folds
[2]; 150 mM HEPES in HBSS
  Folds Uptake mean: 3.106 folds
[2]; 10 V/cm, 80 mA/cm^2
  Folds Uptake Fold: 1.62 folds
[2]; 13.3 V/cm, 120 mA/cm^2
  Folds Uptake Fold: 2.449 folds
[2]; 16.6 V/cm, 160 mA/cm^2
  Folds Uptake Fold: 6.017 folds
[2]; 20 V/cm, 80 mA/cm^2
  Folds Uptake Fold: 1.824 folds
[2]; 20 V/cm, 120 mA/cm^2
  Folds Uptake Fold: 3.015 folds
[2]; 20 V/cm, 160 mA/cm^2
  Folds Uptake Fold: 5.476 folds
[2]; 20 V/cm, 200 mA/cm^2, 100 mM HEPES
  Folds Uptake Fold: 9.134 folds
[2]; 26.6 V/cm, 200 mA/cm^2
  Folds Uptake Fold: 11.73 folds
[2]; 33.3 V/cm, 200 mA/cm^2
  Folds Uptake Fold: 10.49 folds
[2]; 46.6 V/cm, 80 mA/cm^2
  Folds Uptake Fold: 1.694 folds
[2]; 46.6 V/cm, 160 mA/cm^2
  Folds Uptake Fold: 6.34 folds
[2]; 66.6 V/cm, 120 mA/cm^2
  Folds Uptake Fold: 3.447 folds
[2]; train of electric pulses 20V/cm, 200 mA/cm^2, anodic compartment only, relative to constitutive uptake
  increase in cellular uptake in the anodic compartment: 10 fold
[3]
  initial PIU rate of adherent cultures, folds lower than suspended cells: 2.5 folds
[4]
  dextran concentration relative to HT29 cells: 2 folds
[5]
  dextran concentration relative to HT29 cells: 2 folds

From patent publication US20130004581A1, “CONTROLLING UPTAKE BY CELLS” (Ramot at Tel-Aviv University Ltd., priority 2010, published 2013)
